Laboratory results published in ChEMBL document CHEMBL5696439 (Cancer Res, 2010).
pIC50: −log10 of the molar value. Active and inactive are the calls of the source. The rule behind the calls is not given here.

What was measured:
[1] = molecular target: Fibroblast growth factor receptor 2 (Homo sapiens) (UniProt P21802); assay: Inhibition of recombinant human His-tagged FGFR2 (403-822 residues) expressed in baculovirus expression system at 2 uM using Tyr 04 as substrate measured after 1 hr by Z'-LYTE assay relative to control
[2] = test system: MDA-MB-468; assay: Antiproliferative activity against human MDA-MB-468 cells assessed as cell growth inhibition incubated for 24 hrs by MTS assay; type: functional, cell-based; settings: MDA-MB-468, 24 h
[3] = test system: A498; assay: Antiproliferative activity against human A498 cells assessed as reduction in cell size at 1 micromol/L incubated for 48 hrs by Flow cytometry analysis relative to control; type: functional; design: scale not given: the % may be the effect or the level left; settings: dose 1 µmol/L, at 1 µM
[4] = molecular target: Serine/threonine-protein kinase D2 (Homo sapiens) (UniProt Q9BZL6); assay: Inhibition of recombinant human full length GST-tagged PRKD2 expressed in insect cells at 2 uM using Ser/Thr 17 as substrate measured after 1 hr by Z'-LYTE assay relative to control; settings: Insect cell
[5] = test system: Tyrosine-protein kinase ABL1 (Homo sapiens), P00519 [G250E]; assay: Inhibition of recombinant human full-length His-tagged ABL1 G250E mutant expressed in insect cells at 2 uM using Tyr 02 as substrate measured after 1 hr by Z'-LYTE assay relative to control; settings: Insect cell
[6] = test system: MDA-MB-361; assay: Induction of apoptosis in human MDA-MB-361 cells assessed as induction in cell death at 1 micromol/L incubated for 48 hrs by FACS analysis relative to control; type: functional; settings: dose 1 µmol/L, at 1 µM
[7] = test system: BT-474; assay: Induction of apoptosis in human BT-474 cells assessed as increase in PARP cleavage at 0.3 to 3 micromol/L incubated for 48 hrs by Western blot analysis; type: functional, cell-based; settings: dose 0.3-3 µmol/L
[8] = molecular target: Tyrosine-protein kinase BTK (Homo sapiens) (UniProt Q06187); assay: Inhibition of recombinant human full-length His-tagged BTK expressed in insect cells at 2 uM using Tyr 01 as substrate measured after 1 hr by Z'-LYTE assay relative to control; settings: Insect cell
[9] = test system: NCI-H460; assay: Antiproliferative activity against human NCI-H460 cells assessed as cell growth inhibition incubated for 24 hrs by MTS assay; type: functional, cell-based; settings: NCI-H460, 24 h
[10] = molecular target: Mitogen-activated protein kinase kinase kinase kinase 2 (Homo sapiens) (UniProt Q12851); assay: Inhibition of recombinant human full-length His-tagged MAP4K2 expressed in insect cells at 2 uM using Ser/Thr 07 as substrate measured after 1 hr by Z'-LYTE assay relative to control; settings: Insect cell
[11] = test system: A498; assay: Antitumor activity against human A498 cells xenografted in female nude mouse model assessed as tumor regression at 50 mg/kg, po qd administered as 5 days on/2 days off regimen for 4 cycles; type: functional, organism-based; settings: time 28.0 day
[12] = test system: A549; assay: Induction of apoptosis in human A549 cells assessed as increase in G1 phase at 1 micromol/L incubated for 24 hrs by FACS analysis; type: functional, cell-based; settings: dose 1.0 µmol/L
[13] = molecular target: Mitogen-activated protein kinase 12 (Homo sapiens) (UniProt P53778); assay: Inhibition of recombinant human full length His-tagged MAPK12 expressed in baculovirus expression system at 2 uM using Ser/Thr 03 as substrate measured after 1 hr by Z'-LYTE assay relative to control
[14] = test system: Platelet-derived growth factor receptor alpha (Homo sapiens), P16234 [T674I]; assay: Inhibition of recombinant human GST-tagged PDGFRA T674I mutant (550-1089 residues) expressed in baculovirus expression system at 2 uM using Tyr 04 as substrate measured after 1 hr by Z'-LYTE assay relative to control
[15] = test system: MDA-MB-361; assay: Antiproliferative activity against human MDA-MB-361 cells assessed as cell growth inhibition incubated for 3 days by MTS assay; type: functional, cell-based; settings: MDA-MB-361, 72 h
[16] = Inhibition of recombinant human GST-tagged ROCK1 (1-552 residues) expressed in insect cells at 2 uM using Ser/Thr 13 as substrate measured after 1 hr by Z'-LYTE assay relative to control; settings: Insect cell, condition cancer
[17] = molecular target: SRSF protein kinase 1 (Homo sapiens) (UniProt Q96SB4); assay: Inhibition of recombinant human full length His-tagged SRPK1 expressed in insect cells at 2 uM using Ser/Thr 18 as substrate measured after 1 hr by Z'-LYTE assay relative to control; settings: Insect cell
[18] = molecular target: ALK tyrosine kinase receptor (Homo sapiens) (UniProt Q9UM73); assay: Inhibition of recombinant human GST-tagged ALK (1058 to 1620 residues) expressed in insect cells at 2 uM using Tyr 01 as substrate measured after 1 hr by Z'-LYTE assay relative to control; settings: Insect cell
[19] = molecular target: G protein-coupled receptor kinase 3 (Homo sapiens) (UniProt P35626); assay: Inhibition of recombinant human full-length GST-tagged ADRBK2 expressed in insect cells at 2 uM using Ser/Thr 16 as substrate measured after 1 hr by Z'-LYTE assay relative to control; settings: Insect cell
[20] = molecular target: G protein-coupled receptor kinase 5 (Homo sapiens) (UniProt P34947); assay: Inhibition of recombinant human full-length GST-tagged GRK5 expressed in insect cells at 2 uM using Ser/Thr 16 as substrate measured after 1 hr by Z'-LYTE assay relative to control; settings: Insect cell
[21] = test system: A549; assay: Antitumor activity against human A549 cells xenografted in female nude mouse model assessed as substantial regression in large tumor growth at 50 mg/kg, po qd administered as 5 days on/2 days off regimen for 4 cycles; type: functional, organism-based; settings: time 28.0 day
[22] = test system: Rat1; assay: Inhibition of mTORC1 in rat Rat1 cells assessed as S6K phosphorylation at T389 level preincubated for 1 hrs in the presence of IGF-1 stimulation by immunoblot assay; type: cell-based; settings: dose 0.01-2 µmol/L
[23] = test system: MDA-MB-361; assay: Antitumor activity against human MDA-MB-361 cells xenografted in female nude mouse model assessed as suppression in P-S6 level at 6 to 12 mg/kg, po qd administered as 5 days on/2 days off regimen for 4 cycles by immunoblot analysis; type: functional, organism-based; settings: dose 6-12 mg/kg, time 28.0 day
[24] = molecular target: Serine/threonine-protein kinase Nek4 (Homo sapiens) (UniProt P51957); assay: Inhibition of recombinant human full length GST-tagged NEK4 expressed in insect cells at 2 uM using Ser/Thr 17 as substrate measured after 1 hr by Z'-LYTE assay relative to control; settings: Insect cell
[25] = test system: MDA-MB-468; assay: Induction of apoptosis in human MDA-MB-468 cells assessed as increase in G1 phase at 1 micromol/L incubated for 24 hrs by FACS analysis; type: functional, cell-based; settings: dose 1.0 µmol/L
[26] = molecular target: Tyrosine-protein kinase ABL2 (Homo sapiens) (UniProt P42684); assay: Inhibition of recombinant human full-length His-tagged ABL2 expressed in insect cells at 2 uM using Tyr 02 as substrate measured after 1 hr by Z'-LYTE assay relative to control; settings: Insect cell
[27] = test system: PC3MM2; assay: Antitumor activity against human PC3MM2 cells xenografted in female nude mouse model assessed as suppression in P-AKT at S473 level at 50 mg/kg, iv administered once a week and measured at least 8 hrs by immunoblot analysis; type: functional, organism-based
[28] = test system: A498; assay: cells; settings: Homo sapiens, A498, 72 h
Description: Antiproliferative activity against human A498 cells assessed as cell growth inhibition incubated for 3 days by MTS assay

Sequence of Fibroblast growth factor receptor 2 (Homo sapiens) (P21802 22-821 limits assumed): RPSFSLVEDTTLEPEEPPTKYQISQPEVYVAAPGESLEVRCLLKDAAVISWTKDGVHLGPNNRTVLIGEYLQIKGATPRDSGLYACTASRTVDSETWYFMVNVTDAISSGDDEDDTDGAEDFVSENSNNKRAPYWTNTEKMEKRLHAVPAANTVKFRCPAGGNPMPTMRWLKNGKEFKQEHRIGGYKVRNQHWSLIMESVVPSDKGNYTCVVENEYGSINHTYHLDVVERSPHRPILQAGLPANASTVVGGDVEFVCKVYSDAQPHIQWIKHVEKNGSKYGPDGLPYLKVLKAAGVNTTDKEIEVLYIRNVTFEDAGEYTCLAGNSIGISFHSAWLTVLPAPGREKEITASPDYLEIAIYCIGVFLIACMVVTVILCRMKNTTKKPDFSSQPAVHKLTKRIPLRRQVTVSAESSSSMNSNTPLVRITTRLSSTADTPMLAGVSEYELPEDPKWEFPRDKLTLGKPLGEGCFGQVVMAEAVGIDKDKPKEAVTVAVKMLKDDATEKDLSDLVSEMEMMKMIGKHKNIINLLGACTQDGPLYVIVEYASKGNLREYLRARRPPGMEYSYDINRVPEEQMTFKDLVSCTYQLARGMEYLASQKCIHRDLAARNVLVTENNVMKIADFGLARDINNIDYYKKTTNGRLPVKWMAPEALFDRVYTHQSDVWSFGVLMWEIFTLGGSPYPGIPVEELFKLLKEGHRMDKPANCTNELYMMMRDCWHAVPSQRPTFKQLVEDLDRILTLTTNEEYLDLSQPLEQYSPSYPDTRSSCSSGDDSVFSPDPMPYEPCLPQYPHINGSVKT
Sequence of Serine/threonine-protein kinase Nek4 (Homo sapiens) (P51957 whole entry, looked up): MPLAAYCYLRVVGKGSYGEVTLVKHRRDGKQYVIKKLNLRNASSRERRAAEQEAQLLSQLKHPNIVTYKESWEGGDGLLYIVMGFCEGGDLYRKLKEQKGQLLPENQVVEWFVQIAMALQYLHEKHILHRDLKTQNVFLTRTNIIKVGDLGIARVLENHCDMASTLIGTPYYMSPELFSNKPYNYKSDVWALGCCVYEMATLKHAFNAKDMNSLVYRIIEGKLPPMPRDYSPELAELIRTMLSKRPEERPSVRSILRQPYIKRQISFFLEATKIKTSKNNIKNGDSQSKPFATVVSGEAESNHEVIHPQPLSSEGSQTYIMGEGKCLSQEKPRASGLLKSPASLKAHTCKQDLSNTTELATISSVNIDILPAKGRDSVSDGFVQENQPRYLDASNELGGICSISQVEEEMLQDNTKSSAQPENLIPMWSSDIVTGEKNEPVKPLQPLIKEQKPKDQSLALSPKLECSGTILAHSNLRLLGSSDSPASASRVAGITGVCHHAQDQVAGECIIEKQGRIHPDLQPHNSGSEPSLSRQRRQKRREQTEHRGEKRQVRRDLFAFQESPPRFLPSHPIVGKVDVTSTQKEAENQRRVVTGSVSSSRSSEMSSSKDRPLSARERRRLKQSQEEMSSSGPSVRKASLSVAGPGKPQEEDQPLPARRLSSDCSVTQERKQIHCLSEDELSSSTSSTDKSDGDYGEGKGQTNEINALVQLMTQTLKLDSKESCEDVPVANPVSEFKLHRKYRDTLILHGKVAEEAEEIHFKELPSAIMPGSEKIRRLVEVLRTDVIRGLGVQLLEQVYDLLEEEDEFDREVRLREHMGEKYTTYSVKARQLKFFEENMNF
Sequence of G protein-coupled receptor kinase 3 (Homo sapiens) (P35626 whole entry): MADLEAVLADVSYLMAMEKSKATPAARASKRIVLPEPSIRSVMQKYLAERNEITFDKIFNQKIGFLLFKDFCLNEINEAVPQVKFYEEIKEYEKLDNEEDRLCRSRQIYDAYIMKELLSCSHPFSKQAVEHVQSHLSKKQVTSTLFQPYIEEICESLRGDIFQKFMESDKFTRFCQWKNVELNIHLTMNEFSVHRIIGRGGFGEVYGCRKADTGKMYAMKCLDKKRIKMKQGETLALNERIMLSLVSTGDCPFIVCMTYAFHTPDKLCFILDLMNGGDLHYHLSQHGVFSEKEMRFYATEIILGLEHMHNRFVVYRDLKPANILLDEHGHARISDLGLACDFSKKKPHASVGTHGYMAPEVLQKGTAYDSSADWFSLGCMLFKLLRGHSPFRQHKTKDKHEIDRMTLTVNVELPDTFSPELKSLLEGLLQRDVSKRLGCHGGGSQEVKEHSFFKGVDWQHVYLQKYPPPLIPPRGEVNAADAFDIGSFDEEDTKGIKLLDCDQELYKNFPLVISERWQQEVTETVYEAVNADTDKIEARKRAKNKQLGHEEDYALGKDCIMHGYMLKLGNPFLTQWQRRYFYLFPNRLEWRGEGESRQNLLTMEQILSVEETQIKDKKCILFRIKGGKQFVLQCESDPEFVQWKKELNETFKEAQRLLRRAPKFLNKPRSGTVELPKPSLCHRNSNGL
Sequence of Mitogen-activated protein kinase 12 (Homo sapiens) (P53778 whole entry, the tested form may be a part): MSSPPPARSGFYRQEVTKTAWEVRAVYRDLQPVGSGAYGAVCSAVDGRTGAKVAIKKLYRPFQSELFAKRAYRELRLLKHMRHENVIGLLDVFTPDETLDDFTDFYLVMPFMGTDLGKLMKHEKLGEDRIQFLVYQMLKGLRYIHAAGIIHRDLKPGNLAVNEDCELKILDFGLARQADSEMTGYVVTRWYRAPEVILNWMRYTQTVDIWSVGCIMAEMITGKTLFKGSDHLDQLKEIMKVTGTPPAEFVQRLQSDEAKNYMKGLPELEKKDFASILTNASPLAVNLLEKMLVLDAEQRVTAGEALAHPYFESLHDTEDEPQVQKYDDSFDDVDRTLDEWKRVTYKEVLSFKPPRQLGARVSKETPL
Sequence of SRSF protein kinase 1 (Homo sapiens) (Q96SB4 whole entry, the tested form may be a part): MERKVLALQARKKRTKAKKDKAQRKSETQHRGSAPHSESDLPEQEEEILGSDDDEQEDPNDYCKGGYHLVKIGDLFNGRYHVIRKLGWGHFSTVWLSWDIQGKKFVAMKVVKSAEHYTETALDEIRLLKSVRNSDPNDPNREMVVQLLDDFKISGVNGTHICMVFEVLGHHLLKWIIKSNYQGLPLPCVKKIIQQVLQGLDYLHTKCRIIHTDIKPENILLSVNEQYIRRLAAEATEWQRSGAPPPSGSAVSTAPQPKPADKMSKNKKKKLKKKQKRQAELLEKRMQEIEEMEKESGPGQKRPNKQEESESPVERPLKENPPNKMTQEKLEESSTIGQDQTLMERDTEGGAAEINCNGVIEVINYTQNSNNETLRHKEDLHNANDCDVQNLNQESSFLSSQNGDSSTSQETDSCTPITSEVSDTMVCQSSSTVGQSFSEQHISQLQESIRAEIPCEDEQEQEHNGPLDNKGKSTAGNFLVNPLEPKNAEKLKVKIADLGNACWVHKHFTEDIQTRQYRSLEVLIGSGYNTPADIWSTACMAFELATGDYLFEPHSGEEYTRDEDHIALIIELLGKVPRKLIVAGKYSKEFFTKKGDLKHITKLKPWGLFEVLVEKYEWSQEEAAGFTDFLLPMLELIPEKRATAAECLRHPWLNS
Sequence of Serine/threonine-protein kinase D2 (Homo sapiens) (Q9BZL6 whole entry): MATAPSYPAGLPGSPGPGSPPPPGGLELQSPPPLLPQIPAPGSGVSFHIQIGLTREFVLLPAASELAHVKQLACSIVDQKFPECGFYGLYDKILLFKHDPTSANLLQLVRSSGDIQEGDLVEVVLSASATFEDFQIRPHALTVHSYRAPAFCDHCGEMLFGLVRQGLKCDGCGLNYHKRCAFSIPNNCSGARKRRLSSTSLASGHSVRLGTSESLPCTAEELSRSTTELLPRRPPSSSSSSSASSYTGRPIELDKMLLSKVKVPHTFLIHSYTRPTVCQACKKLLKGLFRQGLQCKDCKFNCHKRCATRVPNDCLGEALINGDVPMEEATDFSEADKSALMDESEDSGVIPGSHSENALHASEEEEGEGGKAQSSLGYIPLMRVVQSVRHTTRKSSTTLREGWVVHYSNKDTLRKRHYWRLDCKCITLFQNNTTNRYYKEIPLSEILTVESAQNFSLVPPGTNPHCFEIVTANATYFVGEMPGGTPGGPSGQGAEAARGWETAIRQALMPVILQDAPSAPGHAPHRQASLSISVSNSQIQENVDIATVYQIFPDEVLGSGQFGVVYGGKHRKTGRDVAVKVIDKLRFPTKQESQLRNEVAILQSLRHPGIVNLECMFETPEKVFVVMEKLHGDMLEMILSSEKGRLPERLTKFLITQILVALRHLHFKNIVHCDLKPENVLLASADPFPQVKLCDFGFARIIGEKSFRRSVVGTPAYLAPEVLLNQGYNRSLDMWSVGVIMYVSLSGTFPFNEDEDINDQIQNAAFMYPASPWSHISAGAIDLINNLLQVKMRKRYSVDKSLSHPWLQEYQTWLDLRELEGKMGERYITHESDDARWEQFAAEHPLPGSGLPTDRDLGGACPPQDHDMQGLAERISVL
Sequence of Tyrosine-protein kinase BTK (Homo sapiens) (Q06187 whole entry): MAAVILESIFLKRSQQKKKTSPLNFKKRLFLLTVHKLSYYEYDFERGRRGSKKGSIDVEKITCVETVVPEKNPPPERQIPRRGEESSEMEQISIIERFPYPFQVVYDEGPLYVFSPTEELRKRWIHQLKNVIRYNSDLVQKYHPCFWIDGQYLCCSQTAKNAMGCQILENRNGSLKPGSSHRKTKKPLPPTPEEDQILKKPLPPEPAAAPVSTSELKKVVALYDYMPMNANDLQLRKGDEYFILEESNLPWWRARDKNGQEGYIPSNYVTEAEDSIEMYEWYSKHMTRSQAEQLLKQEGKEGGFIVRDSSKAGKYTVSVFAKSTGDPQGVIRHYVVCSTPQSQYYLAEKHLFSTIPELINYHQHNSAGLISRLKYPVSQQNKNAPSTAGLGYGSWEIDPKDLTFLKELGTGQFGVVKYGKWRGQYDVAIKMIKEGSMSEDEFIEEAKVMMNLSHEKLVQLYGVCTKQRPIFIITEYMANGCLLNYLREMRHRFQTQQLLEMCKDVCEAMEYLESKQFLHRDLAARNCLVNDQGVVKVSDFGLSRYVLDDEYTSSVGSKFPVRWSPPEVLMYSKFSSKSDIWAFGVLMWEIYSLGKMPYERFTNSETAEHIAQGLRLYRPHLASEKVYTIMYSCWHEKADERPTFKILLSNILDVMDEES

## CNC(=O)Nc1ccc(-c2nc(N3CC4CCC(C3)O4)c3cnn(C4CCC5(CC4)OCCO5)c3n2)cc1
[1]
  inhibition: 4%
[2]
  pIC50: 7.60
[3]
  Activity: 83%
[4]
  inhibition: 1%
[5]
  inhibition: 3%
[6]
  Activity: 47%
[7]
  Activity: Active
[8]
  inhibition: 3%
[9]
  pIC50: 6.52
[10]
  inhibition: 3%
[11]
  Activity: Active
[12]
  Activity: Active
[13]
  inhibition: -2%
[14]
  inhibition: 12%
[15]
  pIC50: 7.92
[16]
  inhibition at 2 µM: 5%
[17]
  inhibition: 2%
[18]
  inhibition: 0%
[19]
  inhibition: -3%
[20]
  inhibition: -4%
[21]
  Activity: Active
[22]
  inhibition: Active
[23]
  Activity: Active
[24]
  inhibition: 7%
[25]
  Activity: Active
[26]
  inhibition: 13%
[27]
  Activity: Active
[28]
  pIC50: 7.00
